The results in this text go back to US10221178B2, “Purine inhibitors of human phosphatidylinositol 3-kinase delta” (MERCK SHARP & DOHME CORP., priority 2015, dated 2019).

Experiment [1] has as its target PI3Kalpha (Homo sapiens (Human), UniProt P42336). The experiment can be described thus: HTRF PI3K biochemical assay, alpha isoform (selectivity versus PI3Kalpha). The note with it: relative ratio (PI3K-alpha IC50 value/PI3K-delta IC50 value); form screened: Neutral. The text has this:
(§1) HTRF PI3K Biochemical Assay to Measure Intrinsic Potency of Compound Inhibitors
(§2) The PI3-Kinase biochemical assays were developed to measure the intrinsic potency and compound dependent inhibition of the alpha, beta, delta, and gamma PI3K isoform enzymes.
(§3) This assay was developed and further optimized from a kit produced by Upstate (Millipore catalog #33-047) and has been configured for HTS (high throughput screening) and SAR screening. Briefly, this procedure exploits the exquisite specificity and high affinity binding of enzyme reaction substrate phosphatidyl(3,4,5)triphosphate (PIP3) to the GRP1 pleckstrin homology (PH) domain to generate the signal. In the absence of PIP3, an HTRF (Homogeneous Time-Resolved Fluorescence energy transfer) complex is formed consisting of europium (Eu)-labeled anti-GST, GSTtagged GRP1-PH domain, biotin-PIP3 and streptavidin conjugated APC. The native PIP3 produced by PI3-Kinase activity disrupts in a competitive manner the biotin-PIP3 from the PH domain, resulting in the loss of energy transfer (HTRF complex) and a decrease in the signal. The format of this assay is the same for all 4 isoforms of PI3K; the differences lie in the concentration of enzyme used to achieve robust assay window. The alpha, beta, and delta assays are run at 0.5, 1, and 0.3 nM enzymes and the gamma assay is run at 5 nM enzyme. The ATP concentration is 100 uM in the alpha, beta, and delta assays and 50 uM ATP in the gamma assay. All reactions are run at 5 uM PIP2.
(§4) Compounds are serially diluted (3-fold in 100% DMSO) across a 384-well polypropylene source plated from column 3 to column 12 and column 13 to column 22, to yield 10 concentration dose response for each test compound. Columns 1, 2, 23 and 24 contain either only DMSO or pharmacological known control inhibitor. Once titrations are made, 2.5 nL of the compounds on 384 well plates are reformatted and transferred by acoustic dispense in quadruplicates to a 1536 assay plate (Greiner) to assay across all four PI3K isoform enzymes.
(§5) The PI3-Kinase biochemical assay was optimized using the HTRF kit provided by Upstate (Millipore). The assay kit contains six reagents: 1) 4× Reaction Buffer; 2) native PIP2 (substrate); 3) Stop (EDTA); 4) Detection Mix A (Streptavidin-APC); 5) Detection Mix B (Eu-labeled Anti-GST plus GST-tagged PH-domain); 6) Detection Mix C. In addition, the following items were obtained or purchased; PI3Kinase (alpha 14-602, beta 14-603, gamma 14-558 and delta 14-604 from Upstate; Millipore), dithiothreitol (Sigma, D-5545), Adenosine-5′ triphosphate (InVitrogen, Cat#AS001A), native PIP3 (PI(3,4,5)P3, diC8, H^+, CELLSIGNALS, INC. Cat #907) DMSO (Sigma, 472301).
PI3Kinase Reaction Buffer is prepared by dilution the stock 1:4 with de-ionized water. DTT, PIP2 and Biotin-PIP3 were added to 1536 assay plate at a final concentration of 5 mM, […] on the day of use. Enzyme addition and compound pre-incubation are initiated by the addition of 1.25 ul of PI3K (at twice its final concentration) in the 1× reaction buffer to all wells using a BioRaptor. Plates are incubated at RT for 15 minutes. Reactions are initiated by addition of 1.25 ul of 2× substrate solution (PIP2 and ATP in 1× reaction buffer) using BioRaptor. Plates are incubated in humidified chamber at RT for one hour. Reactions are quenched by addition of 0.625 uL of stop solution to all wells using the BioRaptor. The quenched reactions are then processed to detect product formation by adding 0.625 uL of Detection Solution to all wells using the BioRaptor (Detection mix C, Detection Mix A, and Detection Mix B combined together in an 18:1:1 ratio prepared 2 hours prior to use). Following a one hour incubation in the dark, the HTRF signal is measured on the Envision plate reader set for 330 nm excitation and dual emission detection at […]. […]

Experiment [2] addresses PI3Kdelta (Homo sapiens (Human), UniProt O00329). The experiment can be described thus: HTRF PI3K biochemical assay, delta isoform. To be noted: 0.3 nM enzyme, 100 uM ATP, 5 uM PIP2, form screened: Neutral.
From the text: as §1, §2, §3, §4, §5
PI3Kinase Reaction Buffer is prepared by dilution the stock 1:4 with de-ionized water. DTT, PIP2 and Biotin-PIP3 were added to 1536 assay plate at a final concentration of 5 mM, […] on the day of use. Enzyme addition and compound pre-incubation are initiated by the addition of 1.25 ul of PI3K (at twice its final concentration) in the 1× reaction buffer to all wells using a BioRaptor. Plates are incubated at RT for 15 minutes. Reactions are initiated by addition of 1.25 ul of 2× substrate solution (PIP2 and ATP in 1× reaction buffer) using BioRaptor. Plates are incubated in humidified chamber at RT for one hour. Reactions are quenched by addition of 0.625 uL of stop solution to all wells using the BioRaptor. The quenched reactions are then processed to detect product formation by adding 0.625 uL of Detection Solution to all wells using the BioRaptor (Detection mix C, Detection Mix A, and Detection Mix B combined together in an 18:1:1 ratio prepared 2 hours prior to use). Following a one hour incubation in the dark, the HTRF signal is measured on the Envision plate reader set for 330 nm excitation and dual emission detection at 620 nM (Eu) and 665 nM (APC).

Chain of PI3Kalpha (P42336 whole entry, canonical isoform): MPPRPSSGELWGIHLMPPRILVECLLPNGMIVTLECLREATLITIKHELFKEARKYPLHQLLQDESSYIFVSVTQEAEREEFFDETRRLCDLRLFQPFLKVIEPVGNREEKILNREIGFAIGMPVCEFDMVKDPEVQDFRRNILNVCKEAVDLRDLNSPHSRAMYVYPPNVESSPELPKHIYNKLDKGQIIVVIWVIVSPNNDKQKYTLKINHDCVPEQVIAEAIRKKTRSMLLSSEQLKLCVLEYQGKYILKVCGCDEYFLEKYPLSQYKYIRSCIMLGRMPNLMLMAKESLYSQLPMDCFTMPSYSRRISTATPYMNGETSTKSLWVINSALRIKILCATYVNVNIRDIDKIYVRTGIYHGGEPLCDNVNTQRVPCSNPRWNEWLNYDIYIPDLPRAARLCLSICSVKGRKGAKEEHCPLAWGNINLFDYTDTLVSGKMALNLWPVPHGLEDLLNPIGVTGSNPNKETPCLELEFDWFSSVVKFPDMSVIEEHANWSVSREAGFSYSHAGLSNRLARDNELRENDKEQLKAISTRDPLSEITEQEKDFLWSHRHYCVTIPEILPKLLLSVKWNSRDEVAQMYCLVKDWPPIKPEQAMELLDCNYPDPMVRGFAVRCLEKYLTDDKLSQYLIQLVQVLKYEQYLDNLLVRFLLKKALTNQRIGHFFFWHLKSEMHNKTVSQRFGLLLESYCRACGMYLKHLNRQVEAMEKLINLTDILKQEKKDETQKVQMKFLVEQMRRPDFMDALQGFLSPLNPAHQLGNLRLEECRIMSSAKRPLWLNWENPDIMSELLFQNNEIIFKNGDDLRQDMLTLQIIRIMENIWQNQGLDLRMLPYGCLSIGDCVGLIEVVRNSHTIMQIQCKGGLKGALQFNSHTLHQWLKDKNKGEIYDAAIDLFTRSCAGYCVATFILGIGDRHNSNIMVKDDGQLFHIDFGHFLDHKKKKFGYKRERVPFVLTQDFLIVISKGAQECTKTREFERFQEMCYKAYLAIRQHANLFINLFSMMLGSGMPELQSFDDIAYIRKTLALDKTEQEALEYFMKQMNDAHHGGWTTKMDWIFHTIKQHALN
Chain of PI3Kalpha (P27986 whole entry partner, canonical isoform): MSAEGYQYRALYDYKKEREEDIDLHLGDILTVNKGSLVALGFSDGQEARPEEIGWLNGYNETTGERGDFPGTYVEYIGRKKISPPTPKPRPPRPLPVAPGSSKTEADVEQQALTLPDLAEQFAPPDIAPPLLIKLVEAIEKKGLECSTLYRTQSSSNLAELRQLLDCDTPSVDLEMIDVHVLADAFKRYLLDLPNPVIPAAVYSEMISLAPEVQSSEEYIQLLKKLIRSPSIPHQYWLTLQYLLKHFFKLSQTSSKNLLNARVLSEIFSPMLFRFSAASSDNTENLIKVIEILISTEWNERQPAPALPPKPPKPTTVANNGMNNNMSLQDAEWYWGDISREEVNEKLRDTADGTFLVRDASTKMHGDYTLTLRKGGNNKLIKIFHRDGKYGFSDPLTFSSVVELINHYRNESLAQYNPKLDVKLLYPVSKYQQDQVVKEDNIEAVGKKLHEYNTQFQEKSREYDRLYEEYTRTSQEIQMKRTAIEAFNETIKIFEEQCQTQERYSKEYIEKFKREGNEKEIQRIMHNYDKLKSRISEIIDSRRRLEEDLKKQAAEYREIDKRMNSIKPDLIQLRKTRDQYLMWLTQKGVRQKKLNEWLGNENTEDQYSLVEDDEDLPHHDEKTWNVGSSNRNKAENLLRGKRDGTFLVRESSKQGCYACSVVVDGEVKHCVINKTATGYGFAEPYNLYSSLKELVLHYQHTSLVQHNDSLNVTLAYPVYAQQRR
Chain of PI3Kdelta (O00329 whole entry, canonical isoform): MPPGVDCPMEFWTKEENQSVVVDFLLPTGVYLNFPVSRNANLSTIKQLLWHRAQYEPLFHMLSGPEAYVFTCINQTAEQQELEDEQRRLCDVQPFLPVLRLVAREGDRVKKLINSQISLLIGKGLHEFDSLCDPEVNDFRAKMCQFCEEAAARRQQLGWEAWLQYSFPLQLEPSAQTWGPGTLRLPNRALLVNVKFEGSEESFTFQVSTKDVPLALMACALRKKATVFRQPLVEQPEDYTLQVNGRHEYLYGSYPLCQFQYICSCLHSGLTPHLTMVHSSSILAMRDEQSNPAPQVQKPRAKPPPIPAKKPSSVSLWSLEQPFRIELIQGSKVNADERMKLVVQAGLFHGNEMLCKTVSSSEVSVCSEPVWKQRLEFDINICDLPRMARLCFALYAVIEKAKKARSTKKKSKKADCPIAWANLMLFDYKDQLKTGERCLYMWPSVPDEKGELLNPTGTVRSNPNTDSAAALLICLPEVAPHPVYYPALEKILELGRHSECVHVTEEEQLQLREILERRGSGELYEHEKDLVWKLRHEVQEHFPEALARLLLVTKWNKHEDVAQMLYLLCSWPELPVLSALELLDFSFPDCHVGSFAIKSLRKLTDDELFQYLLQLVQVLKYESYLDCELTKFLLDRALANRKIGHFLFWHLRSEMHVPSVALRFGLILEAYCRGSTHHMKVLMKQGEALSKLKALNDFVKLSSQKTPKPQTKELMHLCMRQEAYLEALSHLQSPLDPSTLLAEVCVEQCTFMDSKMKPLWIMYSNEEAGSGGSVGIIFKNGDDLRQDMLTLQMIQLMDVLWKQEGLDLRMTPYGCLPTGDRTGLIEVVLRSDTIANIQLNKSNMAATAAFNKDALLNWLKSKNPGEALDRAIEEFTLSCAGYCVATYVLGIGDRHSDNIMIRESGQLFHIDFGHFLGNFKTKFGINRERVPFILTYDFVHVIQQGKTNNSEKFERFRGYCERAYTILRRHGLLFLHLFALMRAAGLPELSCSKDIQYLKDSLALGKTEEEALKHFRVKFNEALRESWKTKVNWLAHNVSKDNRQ
Chain of PI3Kdelta (P27986 whole entry partner, canonical isoform): as the sequence (P27986 whole entry partner, canonical isoform) above

For `CCn1c(-c2cnc(C)nc2)nc2c(N[C@@H](CN(C)C)C(=O)N3C[C@@H](C)O[C@@H](C)C3)ncnc21` [Compound 2-51, (2S)-3-[(cis)-2,6-dimethylmorpholin-4-yl]-N-2-[9-ethyl-8-(2-methylpyrimidin-5-yl)-9H-purin-6-yl]-N-1-,N-1-dimethyl-3-oxopropane-1,2-diamine], the “Selectivity versus PI3Kalpha” value in experiment [1] is recorded as above 10. In experiment [2], the IC50 turned out to be 0.42 µM.

`CCn1c(-c2cnc(C)nc2)nc2c(N[C@H](CC(=O)N3CCCC3)C(C)C)ncnc21` [Compound 2-62, 9-ethyl-N-[(1R)-1-(1-methylethyl)-3-oxo-3-pyrrolidin-1-ylpropyl]-8-(2-methylpyrimidin-5-yl)-9H-purin-6-amine]: the “Selectivity versus PI3Kalpha” value in experiment [1] was above 10. In experiment [2], the IC50 was 0.1 µM.

As to `CCn1c(-c2cnc(C)nc2)nc2c(N[C@H](C(=O)N3C[C@@H](C)O[C@@H](C)C3)C3CC3)ncnc21` [Compound 2-40, N-{(1S)-1-cyclopropyl-2-[(cis)-2,6-dimethylmorpholin-4-yl]-2-oxoethyl}-9-ethyl-8-(2-methylpyrimidin-5-yl)-9H-purin-6-amine], the “Selectivity versus PI3Kalpha” value in experiment [1] was above 10. In addition, the concentration for half-maximal inhibition (IC50) in experiment [2] turned out to be 0.0041 µM.

As for `CC[C@H](Nc1ncnc2c1nc(-c1cnc(C)nc1)n2CC)C(=O)N1CCCC(F)(F)C1` [Compound 2-12, N-{(1S)-1-[(3,3-difluoropiperidin-1-yl)carbonyl]propyl}-9-ethyl-8-(2-methylpyrimidin-5-yl)-9H-purin-6-amine], the “Selectivity versus PI3Kalpha” value in experiment [1] is recorded as above 10. Also, the IC50 in experiment [2] is 0.011 µM.

In the case of `CC[C@H](Nc1ncnc2c1nc(-c1cnc(C)nc1)n2CC)C(=O)N1CCCC(OC)CC1` (mixture of isomers) [Compound 2-9, 9-ethyl-N-{(1S)-1-[(4-methoxyazepan-1-yl)carbonyl]propyl}-8-((R and S)-2-methylpyrimidin-5-yl)-9H-purin-6-amine], in experiment [1], the “Selectivity versus PI3Kalpha” value is above 10. The molecule further gave an IC50 in experiment [2] of 0.023 µM.

As to `CC[C@H](Nc1ncnc2c1nc(-c1cnc(C)nc1)n2CC)C(=O)N1CCCC(C)C1` (mixture of isomers) [Compound 2-23, 9-ethyl-N-{(1S)-1-[((R and S)-3-methylpiperidin-1-yl)carbonyl]propyl}-8-(2-methylpyrimidin-5-yl)-9H-purin-6-amine], the “Selectivity versus PI3Kalpha” value in experiment [1] is listed as above 10. In addition, in experiment [2], the midpoint of inhibition, the IC50, lay at 0.0093 µM.

Take `CC[C@H](Nc1ccnc2c1nc(-c1cnc(C)nc1)n2CC)C(=O)N1C[C@@H](C)O[C@@H](C)C1` [Compound 3-1, N-[(1S)-1-{[(cis)-2,6-dimethylmorpholin-4-yl]carbonyl}propyl]-3-ethyl-2-(2-methylpyrimidin-5-yl)-3H-imidazo[4,5-b]pyridin-7-amine]: the “Selectivity versus PI3Kalpha” value in experiment [1] was above 10. In experiment [2], this molecule registered an IC50 of 0.017 µM.

`CCn1c(-c2cnc(C)nc2)nc2c(N[C@@H](COC)C(=O)N3C[C@@H](C)O[C@@H](C)C3)ncnc21` [Compound 2-46, N-[(1S)-2-[(cis)-2,6-dimethylmorpholin-4-yl]-1-(methoxymethyl)-2-oxoethyl]-9-ethyl-8-(2-methylpyrimidin-5-yl)-9H-purin-6-amine]: the “Selectivity versus PI3Kalpha” value in experiment [1] was above 10. This molecule also showed a 50% inhibitory concentration (IC50) in experiment [2] of 0.027 µM.

In the case of `CC[C@H](Nc1ncnc2c1nc(-c1cnc(C)nc1)n2CC)C(=O)N1CC[C@H](F)C1` [Compound 2-15, 9-ethyl-N-[(1S)-1-{[(3S)-3-fluoropyrrolidin-1-yl]carbonyl}propyl]-8-(2-methylpyrimidin-5-yl)-9H-purin-6-amine], the “Selectivity versus PI3Kalpha” value in experiment [1] is recorded as above 10. The molecule also displayed an IC50 in experiment [2] of 0.037 µM.

With `CCn1c(-c2cnc(C)nc2)nc2c(NCC3(C(=O)N4C[C@@H](C)O[C@@H](C)C4)CC3)ncnc21` [Compound 2-57, N-[(1-{[(cis)-2,6-dimethylmorpholin-4-yl]carbonyl}cyclopropyl)methyl]-9-ethyl-8-(2-methylpyrimidin-5-yl)-9H-purin-6-amine], the “Selectivity versus PI3Kalpha” value in experiment [1] is listed as above 10. For the same molecule, the IC50 in experiment [2] was determined as 0.024 µM.

As for `CCn1c(-c2cnc(C)nc2)nc2c(N[C@H](C(=O)N3C[C@@H](C)O[C@@H](C)C3)C(C)(C)C)ncnc21` [Compound 2-42, N-[(1S)-1-{[(cis)-2,6-dimethylmorpholin-4-yl]carbonyl}-2,2-dimethylpropyl]-9-ethyl-8-(2-methylpyrimidin-5-yl)-9H-purin-6-amine], in experiment [1], the “Selectivity versus PI3Kalpha” value is recorded as above 10. Also, in experiment [2], the IC50 is 0.0053 µM.

Take `CCC[C@H](Nc1ncnc2c1nc(-c1cnc(C)nc1)n2CC)C(=O)N1C[C@@H](C)O[C@@H](C)C1` [Compound 2-45, N-[(1S)-1-{[(cis)-2,6-dimethylmorpholin-4-yl]carbonyl}butyl]-9-ethyl-8-(2-methylpyrimidin-5-yl)-9H-purin-6-amine]: in experiment [1], the “Selectivity versus PI3Kalpha” value is above 10. The same molecule showed an IC50 in experiment [2] of 0.026 µM.

In the case of `CCn1c(-c2cnc(C)nc2)nc2c(N[C@@H](CO)C(=O)N3C[C@@H](C)O[C@@H](C)C3)ncnc21` [Compound 2-47, (2S)-3-[(cis)-2,6-dimethylmorpholin-4-yl]-2-{[9-ethyl-8-(2-methylpyrimidin-5-yl)-9H-purin-6-yl]amino}-3-oxopropan-1-ol], in experiment [1], the “Selectivity versus PI3Kalpha” value is recorded as above 10. In experiment [2], this molecule returned an IC50 of 0.012 µM.

Regarding `CCn1c(-c2cnc(C)nc2)nc2c(NC[C@@H](C)C(=O)N3C[C@@H](C)O[C@@H](C)C3)ncnc21` [Compound 2-55, N-{(2R)-3-[(cis)-2,6-dimethylmorpholin-4-yl]-2-methyl-3-oxopropyl}-9-ethyl-8-(2-methylpyrimidin-5-yl)-9H-purin-6-amine], the “Selectivity versus PI3Kalpha” value in experiment [1] is recorded as above 10. Moreover, the midpoint of inhibition in experiment [2], the IC50, lay at 0.02 µM.

For `CC[C@H](Nc1ncnc2c1nc(-c1cnc(C)nc1)n2CC)C(=O)N1CCC(C#N)CC1` [Compound 2-13, 1-[(2S)-2-{[9-ethyl-8-(2-methylpyrimidin-5-yl)-9H-purin-6-yl]amino}butanoyl]piperidine-4-carbonitrile], in experiment [1], the “Selectivity versus PI3Kalpha” value is on record as above 10. Besides, 0.026 µM corresponded to half-maximal inhibition in experiment [2] (IC50).

On to `CC[C@H](Nc1ncnc2c1nc(-c1cnc(C)nc1)n2CC)C(=O)N1C[C@@H](C)N(C(C)=O)[C@@H](C)C1` [Compound 4-2, N-[(1S)-1-{[cis-4-acetyl-3,5-dimethylpiperazin-1-yl]carbonyl}propyl]-9-ethyl-8-(2-methylpyrimidin-5-yl)-9H-purin-6-amine], for which the “Selectivity versus PI3Kalpha” value in experiment [1] was above 10. In experiment [2], this molecule came in with an IC50 of 0.021 µM.
